The record followed here is patent US11344546B2, “Benzamide compounds” (Recurium IP Holdings, LLC, priority 2018, dated 2022).

SMILES strings stand for the structures.

The test deals with RS4;11 cells. Put plainly: RS4;11 cell proliferation assay (CellTiter-Glo). Type of test: cell-based. The settings on record: Homo sapiens, 48 h compound treatment, read-out: RS4;11 (nM) CTG IC50. Here is the method: Cell proliferation was measured using the CellTiter-Glo@ Luminescent Cell Viability Assay. The assay involved the addition of a single reagent (CellTiter-Glo® Reagent) directly to cells cultured in serum-supplemented medium. RS4;11 (ATC, CRL-1873) cells were cultured according to ATCC recommendations and were seeded at 50,000 cells per well. NCI-H1963 cells (ATCC CRL-5982) were cultured according to ATCC recommendations and seeded at 12,000 cells per well.
Each compound evaluated was prepared as a DMSO stock solution (10 mM). Compounds were tested in duplicate on each plate, with a 10-point serial dilution curve (1:3 dilution). Compound treatment (1.0 μL) was added from the compound dilution plate to the cell plate. The highest compound concentration was 10 μM (final), with a 0.1% final DMSO concentration. Plates were then incubated at 37° C., 5% CO2. After 48 h of compound treatment for RS4;11 or 72 h for NCI-H1963, cell plates were equilibrated at rt for approximately 30 mins. An equi-volume amount of CellTiter-Glo@ Reagent (40 μL) was added to each well. Plates were mixed for 2 mins on an orbital shaker to induce cell lysis and then incubated at RT for 10 mins to stabilize the luminescent signal. Luminescence was recorded using a Envision plate reader according to CellTiter-Glo protocol. IC50 of each compound was calculated using GraphPad Prism by nonlinear regression analysis.
A general note: In ATP-based viability assays light output follows the ATP content of the culture.
For the molecule `CC1(C)CCC(CN2CCN(c3ccc(C(=O)NS(=O)(=O)c4ccc(NCC5CC6(COC6)C5)c([N+](=O)[O-])c4)c(Oc4cnc5[nH]ccc5c4)c3)CC2)=C(C23CC(Cl)(C2)C3)C1` [Example 2, 2-(1H-pyrrolo[2,3-b]pyridin-5-yl-oxy)-N-(4-(2-oxaspiro[3.3]heptan-6-yl-methylamino)-3-nitrophenylsulfonyl)-4-(4-((2-(3-chlorobicyclo[1.1.1]pentan-1-yl)-4,4-dimethylcyclohex-1en-yl)methyl)piperazin-1-yl)benzamide], the IC50 was under 100 nM.

As for `CC1(C)CCC(CN2CCN(c3ccc(C(=O)NS(=O)(=O)c4ccc(NCCN5CCC6(CCOC6)CC5)c([N+](=O)[O-])c4)c(Oc4cnc5[nH]ccc5c4)c3)CC2)=C(C23CC(Cl)(C2)C3)C1` [Example 3, 2-((1H-pyrrolo[2,3-b]pyridin-5-yl)oxy)-N-((4-((2-(2-oxa-8-azaspiro[4.5]decan-8-yl)ethyl)amino)-3-nitrophenyl)sulfonyl)-4-(4-((2-(3-chlorobicyclo[1.1.1]pentan-1-yl)-4,4-dimethylcyclohex-1-en-1-yl)methyl)piperazin-1-yl)benzamide], the IC50 was in the range of 100 to 1000 nM.

For the molecule `CC1(C)CCC(CN2CCN(c3ccc(C(=O)NS(=O)(=O)c4ccc(NCCN5CC6(CCOCC6)C5)c([N+](=O)[O-])c4)c(Oc4cnc5[nH]ccc5c4)c3)CC2)=C(C23CC(Cl)(C2)C3)C1` [Example 4, 2-(1H-pyrrolo[2,3-b]pyridin-5-yloxy)-N-(4-(2-(7-oxa-2-azaspiro[3.5]nonan-2-yl)ethylamino)-3-nitrophenylsulfonyl)-4-(4-((2-(3-chlorobicyclo[1.1.1]pentan-1-yl)-4,4-dimethylcyclohex-1-enyl)methyl)piperazin-1-yl)benzamide], the IC50 is 100 to 1000 nM.

As to `CC1(C)CCC(CN2CCN(c3ccc(C(=O)NS(=O)(=O)c4ccc(NCC5CC6(CCOCC6)C5)c([N+](=O)[O-])c4)c(Oc4cnc5[nH]ccc5c4)c3)CC2)=C(C23CC(Cl)(C2)C3)C1` [Example 5, 2-((1H-pyrrolo[2,3-b]pyridin-5-yl)oxy)-N-((4-(((7-oxaspiro[3.5]nonan-2-yl)methyl)amino)-3-nitrophenyl)sulfonyl)-4-(4-((2-(3-chlorobicyclo[1.1.1]pentan-1-yl)-4,4-dimethylcyclohex-1-en-1-yl)methyl)piperazin-1-yl)benzamide], the IC50 fell in the range of 100 to 1000 nM.

With `CC1(C)CCC(CN2CCN(c3ccc(C(=O)NS(=O)(=O)c4ccc(OC5COC6(CC6)C5)c([N+](=O)[O-])c4)c(Oc4cnc5[nH]ccc5c4)c3)CC2)=C(C23CC(Cl)(C2)C3)C1` (stereo not shown) [Example 6, 2-((1H-pyrrolo[2,3-b]pyridin-5-yl)oxy)-N-((4-((4-oxaspiro[2.4]heptan-6-yl)oxy)-3-nitrophenyl)sulfonyl)-4-(4-((2-(3-chlorobicyclo[1.1.1]pentan-1-yl)-4,4-dimethylcyclohex-1-en-1-yl)methyl)piperazin-1-yl)benzamide], the IC50 was over 1000 nM.

`CC1(C)CCC(CN2CCN(c3ccc(C(=O)NS(=O)(=O)c4ccc(OCCN5CC6(COC6)C5)c([N+](=O)[O-])c4)c(Oc4cnc5[nH]ccc5c4)c3)CC2)=C(C23CC(Cl)(C2)C3)C1` [Example 7, 2-(1H-pyrrolo[2,3-b]pyridin-5-yloxy)-N-(4-(2-(2-oxa-6-azaspiro[3.3]heptan-6-yl)ethoxy)-3-nitrophenylsulfonyl)-4-(4-((2-(3-chlorobicyclo[0.1.1]pentan-1-yl)-4,4-dimethylcyclohex-1-enyl)methyl)piperazin-1-yl)benzamide]: the IC50 was over 1000 nM.

Take `CC1(C)CCC(CN2CCN(c3ccc(C(=O)NS(=O)(=O)c4ccc(OCC5CC6(COC6)C5)c([N+](=O)[O-])c4)c(Oc4cnc5[nH]ccc5c4)c3)CC2)=C(C23CC(Cl)(C2)C3)C1` [Example 8, 2-(1H-pyrrolo[2,3-b]pyridin-5-yloxy)-N-(4-(2-oxaspiro[3.3]heptan-6-ylmethoxy)-3-nitrophenylsulfonyl)-4-(4-((2-(3-chlorobicyclo[1.1.1]pentan-1-yl)-4,4-dimethylcyclohex-1-enyl)methyl)piperazin-1-yl)benzamide]: the IC50 lay in the range of 100 to 1000 nM.

For the molecule `CN1CCC(CNc2ccc(S(=O)(=O)NC(=O)c3ccc(N4CCN(CC5=C(C67CC(C)(C6)C7)CC(C)(C)CC5)CC4)cc3Oc3cnc4[nH]ccc4c3)cc2[N+](=O)[O-])CC1` [Example 12, 2-((1H-pyrrolo[2,3-b]pyridin-5-yl)oxy)-4-(4-((4,4-dimethyl-2-(3-methylbicyclo[1.1.1]pentan-1-yl)cyclohex-1-en-1-yl)methyl)piperazin-1-yl)-N-((4-(((1-methylpiperidin-4-yl)methyl)amino)-3-nitrophenyl)sulfonyl)benzamide], the IC50 was under 100 nM.

Take `CN(C)[C@H]1CC[C@H](Nc2ccc(S(=O)(=O)NC(=O)c3ccc(N4CCN(CC5=C(C67CC(C)(C6)C7)CC(C)(C)CC5)CC4)cc3Oc3cnc4[nH]ccc4c3)cc2[N+](=O)[O-])CC1` [Example 14, 2-((1H-pyrrolo[2,3-b]pyridin-5-yl)oxy)-4-(4-((4,4-dimethyl-2-(3-methylbicyclo[1.1.1]pentan-1-yl)cyclohex-1-en-1-yl)methyl)piperazin-1-yl)-N-((4-(((1r,4r)-4-(dimethylamino)cyclohexyl)amino)-3-nitrophenyl)sulfonyl)benzamide]: the IC50 was under 100 nM.

For `CC1(C)CCC(CN2CCN(c3ccc(C(=O)NS(=O)(=O)c4ccc(NCCN5CCOCC5)c([N+](=O)[O-])c4)c(Oc4cnc5[nH]ccc5c4)c3)CC2)=C(C23CC(C)(C2)C3)C1` [Example 21, 2-(1H-pyrrolo[2,3-b]pyridin-5-yloxy)-4-(4-((4,4-dimethyl-2-(3-methylbicyclo[1.1.1]pentan-1-yl)cyclohex-1-enyl)methyl)piperazin-1-yl)-N-(4-(2-morpholinoethylamino)-3-nitrophenylsulfonyl)benzamide], the IC50 lay within 100 to 1000 nM.

For the molecule `CC1(C)CCC(CN2CCN(c3ccc(C(=O)NS(=O)(=O)c4ccc(OCC5CCOCC5)c([N+](=O)[O-])c4)c(Oc4cnc5[nH]ccc5c4)c3)CC2)=C(C23CC(C)(C2)C3)C1` [Example 22, 2-(1H-pyrrolo[2,3-b]pyridin-5-yloxy)-4-(4-((4,4-dimethyl-2-(3-methylbicyclo[1.1.1]pentan-1-yl)cyclohex-1-enyl)methyl)piperazin-1-yl)-N-(3-nitro-4-((tetrahydro-2H-pyran-4-yl)methoxy)phenylsulfonyl)benzamide], the IC50 was under 100 nM.

As for `CCC12CC(C3=C(CN4CCN(c5ccc(C(=O)NS(=O)(=O)c6ccc(NCC7(F)CCN(C)CC7)c([N+](=O)[O-])c6)c(Oc6cnc7[nH]ccc7c6)c5)CC4)CCC(C)(C)C3)(C1)C2` [Example 24, 2-(1H-pyrrolo[2,3-b]pyridin-5-yloxy)-4-(4-((2-(3-ethylbicyclo[1.1.1]pentan-1l-yl)-4,4-dimethylcyclohex-1l-enyl)methyl)piperazin-1-yl)-N-(4-((4-fluoro-1l-methylpiperidin-4-yl)methylamino)-3-nitrophenylsulfonyl)benzamide], the IC50 is under 100 nM.

Take `CN1CCC(F)(CNc2ccc(S(=O)(=O)NC(=O)c3ccc(N4CCN(CC5=C(C67CC(C(F)(F)F)(C6)C7)CC(C)(C)CC5)CC4)cc3Oc3cnc4[nH]ccc4c3)cc2[N+](=O)[O-])CC1` [Example 29, 2-((1H-pyrrolo[2,3-b]pyridin-5-yl)oxy)-4-(4-((4,4-dimethyl-2-(3-(trifluoromethyl)bicyclo[1.1.1]pentan-1-yl)cyclohex-1-en-1-yl)methyl)piperazin-1-yl)-N-((4-(((4-fluoro-1-methylpiperidin-4-yl)methyl)amino)-3-nitrophenyl)sulfonyl)benzamide]: the IC50 is under 100 nM.

Take `CC1(C)CCC(CN2CCN(c3ccc(C(=O)NS(=O)(=O)c4ccc(NCC5CC6(CCOCC6)C5)c([N+](=O)[O-])c4)c(Oc4cnc5[nH]ccc5c4)c3)CC2)=C(C23CC(C(F)F)(C2)C3)C1` [Example 37, 2-((1H-pyrrolo[2,3-b]pyridin-5-yl)oxy)-N-((4-(((7-oxaspiro[3.5]nonan-2-yl)methyl)amino)-3-nitrophenyl)sulfonyl)-4-(4-((2-(3-(difluoromethyl)bicyclo[1.1.1]pentan-1-yl)-4,4-dimethylcyclohex-1-en-1-yl)methyl)piperazin-1-yl)benzamide]: the IC50 was under 100 nM.

Regarding `O=C(NS(=O)(=O)c1ccc(NCC2CCOCC2)c([N+](=O)[O-])c1)c1ccc(N2CCN(CC3=C(C45CC(C(F)F)(C4)C5)CC4(CCC4)CC3)CC2)cc1Oc1cnc2[nH]ccc2c1` [Example 42, 2-((1H-pyrrolo[2,3-b]pyridin-5-yl)oxy)-4-(4-((6-(3-(difluoromethyl)bicyclo[1.1.1]pentan-1-yl)spiro[3.5]non-6-en-7-yl)methyl)piperazin-1-yl)-N-((3-nitro-4-(((tetrahydro-2H-pyran-4-yl)methyl)amino)phenyl)sulfonyl)benzamide], the IC50 is under 100 nM.

Consider `CC12CC(C3=C(CN4CCN(c5ccc(C(=O)NS(=O)(=O)c6ccc(NCC7(F)CCOCC7)c([N+](=O)[O-])c6)c(Oc6cnc7[nH]ccc7c6)c5)CC4)CCC4(CCC4)C3)(C1)C2` [Example 43, 2-((1H-pyrrolo[2,3-b]pyridin-5-yl)oxy)-N-((4-(((4-fluorotetrahydro-2H-pyran-4-yl)methyl)amino)-3-nitrophenyl)sulfonyl)-4-(4-((6-(3-methylbicyclo[1.1.1]pentan-1-yl)spiro[3.5]non-6-en-7-yl)methyl)piperazin-1-yl)benzamide], for which the IC50 fell in the range of 100 to 1000 nM.
